According to article PMC7698926 (International Journal of Molecular Sciences, 2020):
Converted amounts (≈) assume the structure as drawn. “And” between values parts separate entries of the source, which are not always exact repeats. Identical values can stand only once. Like-named read-outs stand apart in the source and are kept apart here. Where a SMILES comes first, the peptide text is derived from it.

What was measured:
[1] = test system: C. fangii, X. oryzae pv. oryzae, C. michiganensis, and R. solanacearum; assay type: physicochemical; details: heated 30 min at 4 °C, 50 °C, 80 °C and 100 °C; agar diffusion on four indicator bacteria; compared to control SCK6-e
C. fangii [2] = test system: C. fangii
X. oryzae pv. oryzae [3] = assay type: cell-based, Xanthomonas oryzae pv. oryzae; details: peptide at MIC, 2 h, 28 °C; X. oryzae pv. oryzae exponential phase; flow cytometry; control 0.07%
X. oryzae pv. oryzae [4] = assay type: cell-based, Xanthomonas oryzae pv. oryzae; details: X. oryzae pv. oryzae (G-); extracellular peptide from B. subtilis strain; mean ± SD, three independent experiments; control SCK6-e 0.66 ±0.033
X. oryzae pv. oryzae [5] = test system: X. oryzae pv. oryzae; parameters: species or system rice; details: control SCK6-e
X. oryzae pv. oryzae [6] = assay type: cell-based, Xanthomonas oryzae pv. oryzae; details: peptide at MIC, 2 h, 28 °C; PBS control
C. michiganensis [7] = test system: C. michiganensis
R. solanacearum [8] = assay type: cell-based, Ralstonia solanacearum; details: R. solanacearum (G-); extracellular peptide from B. subtilis strain; mean ± SD, three independent experiments; control SCK6-e 0.75 ±0.050
C. michiganensis [9] = assay type: cell-based, Clavibacter michiganensis subsp
X. oryzae pv. oryzae [10] = assay type: cell-based, Xanthomonas oryzae pv. oryzae; details: peptide 1 × MIC, OD600
C. fangii [11] = assay: Salt sensitivity assay; assay type: cell-based, Clavibacter fangii; details: peptide 1 × MIC, OD600
X. oryzae pv. oryzae [12] = assay type: cell-based, Xanthomonas oryzae pv. oryzae; details: peptide at MIC; 28 °C, OD600 at 2–24 h; compared with polymyxin B
X. oryzae pv. oryzae [13] = assay type: cell-based, Xanthomonas oryzae pv. oryzae; details: peptide at MIC, 10 μM DCFH-DA, 28 °C, after 30 min, upward trend at 120 min; compared to untreated strain
Magnaporthe oryzae = assay type: cell-based; details: peptide 260 μg/mL in PDA, 28 °C, 96 h; buffer control
C. fangii [14] = assay type: cell-based, Clavibacter fangii
X. oryzae pv. oryzicola = X. oryzae pv. oryzicola (Gram-negative); purified peptide; LB medium, 28 °C, 24 h
[15] = test system: Gram-negative and Gram-positive bacteria; details: range over C. fangii, R. solanacearum, C. michiganensis, X. oryzae pv oryzae, X. oryzae pv. oryzicola, B. subtilis (168)
R. solanacearum [16] = details: R. solanacearum (Gram-negative); purified peptide; LB medium, 28 °C, 24 h
X. oryzae pv. oryzae [17] = details: X. oryzae pv. oryzae (Gram-negative); purified peptide; LB medium, 28 °C, 24 h

What does the source list for `CC[C@H](C)[C@H](NC(=O)[C@H](CO)NC(=O)[C@H](CCCCN)NC(=O)[C@H](CCCNC(=N)N)NC(=O)[C@@H](NC(=O)[C@H](CCC(=O)O)NC(=O)[C@H](Cc1ccc(O)cc1)NC(=O)[C@H](CS)NC(=O)[C@H](Cc1c[nH]cn1)NC(=O)[C@@H](NC(=O)[C@H](Cc1c[nH]cn1)NC(=O)[C@H](CCCCN)NC(=O)[C@H](CCC(=O)O)NC(=O)[C@H](CO)NC(=O)[C@H](CO)NC(=O)[C@@H](NC(=O)[C@H](CS)NC(=O)[C@H](CC(N)=O)NC(=O)[C@H](Cc1ccc(O)cc1)NC(=O)[C@@H](NC(=O)[C@H](Cc1c[nH]cn1)NC(=O)[C@@H](NC(=O)[C@H](Cc1ccc(O)cc1)NC(=O)[C@@H](NC(=O)[C@H](CC(=O)O)NC(=O)[C@@H](NC(=O)[C@@H](N)CC(C)C)C(C)C)[C@@H](C)CC)[C@@H](C)O)C(C)C)[C@@H](C)O)[C@@H](C)O)[C@@H](C)CC)C(=O)N[C@@H](CO)C(=O)O` [OrR214] (H-LVDIYTHVYNCTSSEKHTHCYEIRKSIS-OH)?
antimicrobial activity after heating (thermal stability) [1]: significant activity; MIC (B. subtilis (168); 168, 24 h): 8.3 µM (≈ 27.6 µg/mL); MIC (C. fangii [2]; 24 h): 10.7 µM (≈ 35.6 µg/mL); PI staining rate (PI uptake) (X. oryzae pv. oryzae [3]): ~37.1%; bacteriostatic diameter (X. oryzae pv. oryzae [4]): 1.3 ±0.058 cm; necrotic leaf lesion growth on detached rice leaves (X. oryzae pv. oryzae [5]; X. oryzae pv. oryzae mixed with peptide, leaf clipping, 28 °C, 7 d): decreased necrotic leaf lesion growth; incidence of rice leaves (X. oryzae pv. oryzae [5]; X. oryzae pv. oryzae, 7 d post-inoculation, lesion length): decreased significantly; cell morphology by SEM and TEM (X. oryzae pv. oryzae [6]): severe damage to the cell membrane surface; MIC (C. michiganensis [7]; 24 h): 10.5 µM (≈ 34.9 µg/mL); bacteriostatic diameter (R. solanacearum [8]): 1.3 ±0.050 cm; bacteriostatic diameter (C. michiganensis [9]): 1.2 ±0.033 cm; antimicrobial activity at 150 mM Na+ (X. oryzae pv. oryzae [10]; NaCl 150 mM): slightly affected; antibacterial activity at 50–100 mM Na+ (X. oryzae pv. oryzae [10]; NaCl 50, 100 mM): significant bacteriostatic effect; antimicrobial activity at 150 mM Na+ (C. fangii [11]; NaCl 150 mM): slightly affected; antibacterial activity at 50–100 mM Na+ (C. fangii [11]; NaCl 50, 100 mM): significant bacteriostatic effect; time-kill, bacterial growth after peptide treatment (X. oryzae pv. oryzae [12]): hardly grew after 12 h of treatment; ROS production, DCFH-DA fluorescence intensity (X. oryzae pv. oryzae [13]): significantly increased; mycelium growth of Magnaporthe oryzae (Magnaporthe oryzae): significantly inhibit the mycelium growth; bacteriostatic diameter (C. fangii [14]): 1.1 ±0.033 cm

What does the source list for `CSCC[C@H](NC(=O)[C@@H](NC(=O)[C@@H](NC(=O)[C@H](CC(N)=O)NC(=O)[C@H](CC(N)=O)NC(=O)[C@H](CC(C)C)NC(=O)[C@H](CCCNC(=N)N)NC(=O)[C@H](CC(C)C)NC(=O)[C@@H](NC(=O)[C@H](CO)NC(=O)[C@H](CO)NC(=O)[C@@H](NC(=O)[C@@H]1CCCN1C(=O)[C@@H](NC(=O)CNC(=O)[C@@H](N)CC(C)C)C(C)C)C(C)C)[C@@H](C)O)[C@@H](C)O)[C@@H](C)O)C(=O)N[C@@H](CC(N)=O)C(=O)N1CCC[C@H]1C(=O)N[C@@H](CS)C(=O)N[C@@H](CC(C)C)C(=O)N1CCC[C@H]1C(=O)N[C@@H](CO)C(=O)O` [OrR935] (H-LGVPVSSTLRLNNTTMNPCLPS-OH)?
MIC (B. subtilis (168); 168, 24 h): 36.1 µM (≈ 83.6 µg/mL); MIC (C. fangii [2]; 24 h): 37.7 µM (≈ 87.3 µg/mL); MIC (C. michiganensis [7]; 24 h): 34.6 µM (≈ 80.1 µg/mL); MIC (X. oryzae pv. oryzicola): 31.4 µM (≈ 72.7 µg/mL); MIC (range over six bacteria) [15]: 31.4 to 44.0 µM; MIC (R. solanacearum [16]): 33 µM (≈ 76.4 µg/mL); MIC (X. oryzae pv. oryzae [17]): 44.0 µM (≈ 102 µg/mL)

How did the bacteriostatic diameter (X. oryzae pv. oryzae [4]) turn out when “LSFCSCIRTNLDGFDQKLQWNPHFY [OrR1135, candidate antimicrobial peptide from the O. rufipogon cDNA library, 25 amino acids]” was run?
The bacteriostatic diameter was 1.2 ±0.11 cm.

And the bacteriostatic diameter (R. solanacearum [8])?
The bacteriostatic diameter was 1.4 ±0.050 cm.

And the bacteriostatic diameter (C. michiganensis [9])?
Its bacteriostatic diameter is 1.2 ±0.033 cm.

What about the bacteriostatic diameter (C. fangii [14]) of the same compound?
Its bacteriostatic diameter is 1.1 ±0.060 cm.

With Polymyxin B [reference compound] as the compound, how does the MIC (B. subtilis (168); B. subtilis (168) (Gram-positive), purified peptide, LB medium, 28 °C, 24 h) read?
Its MIC is 15.0 µM.

What about the MIC (C. fangii [2]) of the same compound?
Its MIC is 25.0 µM.

And the MIC (C. michiganensis [7])?
Its MIC is 12.5 µM.

And the MIC (X. oryzae pv. oryzicola)?
The MIC was 10.0 µM.

And the “MIC (range over six bacteria)” value [15]?
The value was 5 to 25 µM and 5.0 to 25.0 µM.

And the MIC (R. solanacearum [16])?
The MIC was 7.5 µM.

And the MIC (X. oryzae pv. oryzae [17])?
The MIC was 5.0 µM.
